According to patent US20110306639A1, “HYDROCARBYLIDENE NITROHYDROZINECARBOXIMIDAMIDES AND A METHOD FOR MAKING THE SAME, AS WELL AS THEIR USES AS AN INSECTICIDE” (priority 2008, published 2011):
Where two headings read alike, the source gives them in different places.

SMILES | mortality(%) myzus persicae (600 μg/mL) (myzus persicae; in vivo) [%] | mortality(%) Helicoverpa armigera (500 μg/mL) (Helicoverpa armigera; 500 μg/mL, 48 hours) [%] | mortality(%) asparagus caterpillar (500 μg/mL) (asparagus caterpillar; in vivo) [%] | mortality(%) Helicoverpa armigera (500 μg/mL) (Helicoverpa armigera; in vivo) [%] | mortality(%) myzus persicae (600 μg/mL) (myzus persicae; 600 μg/mL) [%] | mortality(%) asparagus caterpillar (500 μg/mL) (asparagus caterpillar; 500 μg/mL, 48 hours) [%]
CCCCCCC=NNC(=N[N+](=O)[O-])NCc1ccccc1 [Compound 49] | 28.6 | 50 | 0 | – | – | –
C=CCNC(=N[N+](=O)[O-])NN=CCCCCCC [Compound 47] | 23.7 | 0 | 0 | – | – | –
CCCNC(=N[N+](=O)[O-])NN=CC=C(C)CCC=C(C)C [Compound 18] | – | – | 60 | 50 | – | –
C=CC=NNC(=N[N+](=O)[O-])NCCC [Compound 40] | 8.3 | 30 | 20 | – | – | –
CC=CC=NNC(=N[N+](=O)[O-])NCc1ccccc1 [Compound 37] | – | 70 | 20 | – | – | –
CNC(=N[N+](=O)[O-])NN=CC=C(C)CCC=C(C)C [Compound 16] | 31.4 | – | 70 | 30 | – | –
CCCNC(=N[N+](=O)[O-])NN=Cc1ccc(OCC)c(OC)c1 [Compound 96] | 73.4 | – | 50 | 20 | – | –
CCCCNC(=N[N+](=O)[O-])NN=Cc1ccccc1OC [Compound 74] | 40.4 | 0 | 30 | – | – | –
CC(C)C=NNC(=N[N+](=O)[O-])NCc1ccc(Cl)nc1 [Compound 8] | 87.0 | – | 40 | 60 | – | –
CC=CC=NNC(=N[N+](=O)[O-])NC [Compound 31] | 42.6 | 60 | 10 | – | – | –
C#CCNC(=N[N+](=O)[O-])NN=CC(C)C [Compound 6] | 37.9 | 100 | 60 | – | – | –
CCCCC=NNC(=N[N+](=O)[O-])NCCCC [Compound 52] | 81.0 | 20 | 60 | – | – | –
COc1ccccc1C=NNC(=N[N+](=O)[O-])NCc1ccccc1 [Compound 75] | 92.8 | 30 | 90 | – | – | –
Cc1ccc(C=NNC(=N[N+](=O)[O-])NCc2ccc(Cl)nc2)cc1 [Compound 107] | – | 10 | – | – | 3.7 | 20
CCCNC(=N[N+](=O)[O-])NN=Cc1ccc(F)cc1 [Compound 100] | 20.3 | – | 90 | 20 | – | –
CCCNC(=N[N+](=O)[O-])NN=Cc1ccccc1OC [Compound 73] | 20.2 | 50 | 70 | – | – | –
CCCCNC(=N[N+](=O)[O-])NN=Cc1ccc(OCC)c(OC)c1 [Compound 97] | 35.8 | – | 70 | 40 | – | –
C#CCNC(=N[N+](=O)[O-])NN=CCCCC [Compound 54] | 47.6 | 40 | 10 | – | – | –
CCC=NNC(=N[N+](=O)[O-])NCCC [Compound 10] | 78.3 | 80 | 20 | – | – | –

SMILES | mortality(%) myzus persicae (600 μg/mL) (myzus persicae; in vivo) [%] | mortality(%) Helicoverpa armigera (500 μg/mL) (Helicoverpa armigera; 500 μg/mL, 48 hours) [%] | mortality(%) asparagus caterpillar (500 μg/mL) (asparagus caterpillar; in vivo) [%] | mortality(%) Helicoverpa armigera (500 μg/mL) (Helicoverpa armigera; in vivo) [%] | mortality(%) myzus persicae (600 μg/mL) (myzus persicae; 600 μg/mL) [%] | mortality(%) asparagus caterpillar (500 μg/mL) (asparagus caterpillar; 500 μg/mL, 48 hours) [%]
CCC=NNC(=N[N+](=O)[O-])NCCCC [Compound 11] | 1.5 | 50 | 50 | – | – | –
CCNC(=N[N+](=O)[O-])NN=Cc1ccc(N(C)C)cc1 [Compound 69] | 90.6 | – | 80 | 30 | – | –
C=CCNC(=N[N+](=O)[O-])NN=Cc1ccc(N(C)C)cc1 [Compound 72] | 23.6 | – | 50 | 50 | – | –
C=CCNC(=N[N+](=O)[O-])NN=CC=CC [Compound 35] | 56.7 | 20 | 60 | – | – | –
CC(C)C=NNC(=N[N+](=O)[O-])NCc1ccccc1 [Compound 7] | 18.4 | 40 | 50 | – | – | –
C#CCNC(=N[N+](=O)[O-])NN=CCCC [Compound 28] | 11.4 | 60 | 70 | – | – | –
CCCNC(=N[N+](=O)[O-])NN=CC(C)C [Compound 3] | 14.4 | 30 | 20 | – | – | –
C=CCNC(=N[N+](=O)[O-])NN=Cc1ccc(OCC)c(OC)c1 [Compound 99] | 45.8 | – | 30 | 50 | – | –
CCCCCCC=NNC(=N[N+](=O)[O-])NCCCC [Compound 46] | – | 20 | 30 | – | – | –
C=CC=NNC(=N[N+](=O)[O-])NCC [Compound 39] | – | 20 | 40 | – | – | –
O=[N+]([O-])N=C(NCc1ccc(Cl)nc1)NN=Cc1ccc(Cl)cc1 [Compound 108] | – | – | 50 | 50 | – | –
CCCC=NNC(=N[N+](=O)[O-])NCCC [Compound 25] | – | 50 | 10 | – | – | –
C=CCNC(=N[N+](=O)[O-])NN=CCC [Compound 12] | – | 30 | 40 | – | – | –
COc1ccccc1C=NNC(=N[N+](=O)[O-])NCc1ccc(Cl)nc1 [Compound 109] | – | – | 90 | 40 | – | –
CCCNC(=N[N+](=O)[O-])NN=Cc1ccc(N(C)C)cc1 [Compound 70] | – | – | 80 | 40 | – | –
CCCC=NNC(=N[N+](=O)[O-])NCc1ccccc1 [Compound 29] | – | 60 | 50 | – | – | –
CC=CC=NNC(=N[N+](=O)[O-])NCCCC [Compound 34] | – | 40 | 60 | – | – | –
C#CCNC(=N[N+](=O)[O-])NN=CC=C [Compound 43] | – | 40 | 20 | – | – | –
CN(C)c1ccc(C=NNC(=N[N+](=O)[O-])NCc2ccccc2)cc1 [Compound 71] | – | – | 90 | 30 | – | –
